From paper PMC8944797, “Novel Antimicrobial Peptides Designed Using a Recurrent Neural Network Reduce Mortality in Experimental Sepsis” (Antibiotics, 2022)

Tests used:
[1] = system: K. pneumoniae-induced sepsis; test: murine experimental model of K. pneumoniae-induced sepsis, survival; assay type: in vivo, ICR (CD-1) mice; conditions: for Survival proportions: single i.p. 100 μg dose, n=12
Experimental: To assess the effectiveness of the studied peptides, a murine model of lethal generalized infection was used. The model of sepsis makes it possible to perform a simple and rapid screening assessment of the effectiveness of new antimicrobial agents in vivo [22, 28].
The ICR (CD-1) laboratory mice (females with an average weight of 30 g) were maintained in the vivarium of the Stavropol State Medical University. The mice (four animals per cage) were housed in temperature-controlled rooms at 24 °C and 50–60% humidity with a 12 h/12 h light/dark cycle and water and food availability ad libitum.
The animals were injected with bacterial suspensions of one of the carbapenem-resistant isolates of K. pneumoniae (isolate #7, Supplementary Table S2) prepared from a fresh morning culture in accordance with the McFarland turbidity standard of 15 (which corresponds to an approximate concentration of 4.5 × 10^9 CFU/mL). To determine the turbidity of the suspension, a DEN-1 densitometer (Biosan, Latvia) was used.
At t = 0 min, all animals were infected with K. pneumoniae: 150 μL of a 4.5 × 10^9 CFU/mL suspension (approx. 6.75 × 10^8 CFU per mice). 30 min after infection, the mice received a single injection of peptides at a dose of 100 μg. Mortality was assessed every 24 h for 5 days. Moribund animals were killed humanely to avoid unnecessary distress.
(§1) Calculations of MICs (median, first, and third quartile) were performed in Microsoft Excel (Supplementary Tables S1–S3). Survival analysis by the Kaplan–Meier method and log-rank (Mantel–Cox) test was performed using GraphPad Prism version 9.2.0 for macOS (GraphPad Software, San Diego, CA, USA, www.graphpad.com, accessed on 29 January 2022).

[2] = system: carbapenem-resistant isolates of Pseudomonas aeruginosa; test: MIC, broth dilution method (EUCAST); assay type: cell-based; conditions: median (first and third quartile) over n = 17 isolates; Mueller-Hinton broth, 37 °C, 18–20 h; range tested 0 to 32 μg/mL
Experimental: (§2) The strains of bacteria were isolated in 2021 from patients in the intensive care unit of the Stavropol State Regional Clinical Hospital. Identification and determination of antibiotic resistance of bacterial isolates were carried out using the disk diffusion method as part of a routine microbiological study in accordance with the European Committee on Antimicrobial Susceptibility Testing (EUCAST) protocols in the Department of Clinical Microbiology of the Center of Clinical Pharmacology and Pharmacotherapy.
(§3) The study of the antimicrobial activity of the synthesized peptides was performed by the standard broth dilution method according to the EUCAST guidelines. Briefly, pure bacterial cultures were cultured on a solid nutrient media (mannitol salt agar, BioMedia, Russia). From a fresh morning culture, we prepared a suspension in sterile saline corresponding to a McFarland turbidity standard of 0.5 (which is equivalent to 1–2 × 10^8 CFU/mL). The resulting suspension was dissolved in the BBL^TM Mueller-Hinton broth (Becton, Dickinson and Company, Franklin Lakes, NJ, USA) to obtain an inoculum with an approximate concentration of 5 × 10^5 CFU/mL. The inoculum (100 μL per well) was added to the wells of a sterile 96-well microtiter plate with a U-shaped bottom (Medpolymer, St. Petersburg, Russia). After that, serial two-fold dilutions of tested peptides (100 μL per well) were added to the wells. There were also sterility control wells (Mueller-Hinton broth only, without bacteria) and growth control wells (bacterial inoculum without peptides). Then, the plates were incubated in a thermostat at 37 °C. […] The MIC was taken as the minimum peptide concentration at which there was no visual growth in the corresponding well [26]. The peptides were dissolved in the Mueller–Hinton broth. The experiments with each peptide and bacterial isolate were performed in triplicate (in different plates). MIC values were calculated as median values of three independent replicates (calculations are presented in Supplementary Tables S1–S3).
as §1

[3] = system: carbapenem-resistant isolates of Klebsiella aerogenes; test: MIC, broth dilution method (EUCAST); assay type: cell-based; conditions: median (first and third quartile) over n = 12 isolates; Mueller-Hinton broth, 37 °C, 18–20 h; range tested 0 to 32 μg/mL
Experimental: as §2, §3, §1

[4] = system: carbapenem-resistant isolates of K. pneumoniae; test: MIC, broth dilution method (EUCAST); assay type: cell-based, Klebsiella pneumoniae; conditions: median (first and third quartile) over n = 18 isolates; Mueller-Hinton broth, 37 °C, 18–20 h; range tested 0 to 32 μg/mL
Experimental: as §2
as §3, with “S1–S3). […]” for “S1–S3).”

Sequence | Survival proportions ([1]; day 1 after infecting) | Survival proportions ([1]; day 2 after infecting) [%] | Survival proportions ([1]; day 3 after infecting) | survival proportion by the end of the observation period ([1]; single intraperitoneal 100 μg dose 30 min after infection with 6.75 × 10^8 CFU K. pneumoniae, 5 days, n = 12 mice) [%] | MIC [2] | MIC [3] | MIC [4]
GIFSKLAGKKIKNLLISGLKNIGKEVGM [PEP-36, synthesized LSTM RNN-generated peptide] | 91,7% | 75 | 66,7% | 66.7 | not active | not active | not active
GILSSFKGVLKGAGKNLLGSLKDKLKN [PEP-174, synthesized LSTM RNN-generated peptide; probably printed as PEP-134 in b33] |  |  |  |  | not active | not active | not active
KWKLFKKIWSSVKLKS [PEP-136, synthesized LSTM RNN-generated peptide] |  |  |  |  | not active | not active | not active
